According to PMC6895180 (Nature Communications, 2019):
Values joined by “and” are separate entries in the source; they are usually repeats but may differ in a detail not shown here. Identical values can stand only once. Like-named read-outs stand apart in the source and are kept apart here.

Key:
[1] = test system: T. brucei BSF s427 wildtype cells; assay: Growth assays of T. brucei (trypanocidal/trypanostatic effect); format: cell-based, Trypanosoma brucei
Method: Growth assays of T. brucei
To test the effect of the novel adenosine analogues on the growth of T. brucei BSF, s427 wildtype cells were seeded at 1×10^5 cells mL-1 in 5 mL of HMI-9 medium with 10% FBS and treated with compounds […]
cells were also incubated in drug-free medium under the same conditions. 2 μM of 2’-deoxycoformycin were added to all cultures to avoid any potential effect of serum adenosine deaminase on the activity of test compounds and cordycepin.1
Cells were manually counted in Neubauer chambers at 0, 2, 4, 6, 8, 12, 24, 36 and 48 h after addition of […]
the drugs. […]
After 6 and 12 h after addition of drugs, approximately 2×10^6 cells were harvested from each group and applied to glass slides pre-treated with poly-L-lysine, left to settle for 5 min and fixed with 4% formaldehyde for 4 min. The formaldehyde was neutralised by addition of 100 mM glycine (20 min).
Cells were washed once with PBS and blocked for 1 h with 1% BSA/0.2% Tween-20 in PBS. Cells were […]

T. brucei Squib 427 = assay: microbe, parasite or virus in culture; format: cell-based, Trypanosoma brucei brucei
P2 transporter (TbAT1) = P2 transporter (TbAT1) (Trypanosoma brucei brucei, UniProt Q9Y0I0); assay: cell-based; details: for Ki: P2 transporter Ki
Sequence of P2 transporter (TbAT1) (Q9Y0I0 entry or part of it): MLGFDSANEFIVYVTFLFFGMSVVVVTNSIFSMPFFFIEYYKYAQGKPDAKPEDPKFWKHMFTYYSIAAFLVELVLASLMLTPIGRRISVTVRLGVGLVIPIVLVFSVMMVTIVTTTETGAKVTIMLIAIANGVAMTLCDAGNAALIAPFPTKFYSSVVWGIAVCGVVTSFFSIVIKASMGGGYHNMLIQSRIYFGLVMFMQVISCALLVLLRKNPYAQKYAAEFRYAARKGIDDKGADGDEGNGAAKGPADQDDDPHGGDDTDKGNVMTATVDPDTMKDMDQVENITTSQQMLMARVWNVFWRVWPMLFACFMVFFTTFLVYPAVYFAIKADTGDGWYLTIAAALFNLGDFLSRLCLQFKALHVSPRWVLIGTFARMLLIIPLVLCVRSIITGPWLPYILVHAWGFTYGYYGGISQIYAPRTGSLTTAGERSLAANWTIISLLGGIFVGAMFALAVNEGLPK
Method: Non-specific association of radiolabel with the cell pellet was determined using an identical incubation in the presence of saturating (1 mM) unlabelled adenosine.

## Nc1ncnc2c1ccn2[C@@H]1O[C@H](CO)C[C@H]1O [Compound 9, 3’-deoxytubercidin]
[1]; 2xEC50, 2 h, experiment 1
  AVG of cells/mL: 105000 cells/mL
  Cells/mL: 117500 Cells/mL and 92500 Cells/mL
  Counts: 47 and 37
[1]; 2xEC50, 2 h, experiment 2
  AVG of cells/mL: 147500 cells/mL
  Cells/mL: 140000 Cells/mL and 155000 Cells/mL
  Counts: 56 and 62
[1]; 2xEC50, 4 h, experiment 1
  AVG of cells/mL: 158750 cells/mL
  Cells/mL: 160000 Cells/mL and 157500 Cells/mL
  Counts: 63 and 64
[1]; 2xEC50, 4 h, experiment 2
  AVG of cells/mL: 186250 cells/mL
  Cells/mL: 177500 Cells/mL and 195000 Cells/mL
  Counts: 78 and 71
[1]; 2xEC50, 6 h, experiment 1
  AVG of cells/mL: 160000 cells/mL
  Cells/mL: 170000 Cells/mL and 150000 Cells/mL
  Counts: 68 and 60
[1]; 2xEC50, 6 h, experiment 2
  AVG of cells/mL: 210000 cells/mL
  Cells/mL: 192500 Cells/mL and 227500 Cells/mL
  Counts: 77 and 91
[1]; 2xEC50, 8 h, experiment 1
  AVG of cells/mL: 167500 cells/mL
  Cells/mL: 162500 Cells/mL and 172500 Cells/mL
  Counts: 65 and 69
[1]; 2xEC50, 8 h, experiment 2
  AVG of cells/mL: 156250 cells/mL
  Cells/mL: 162500 Cells/mL and 150000 Cells/mL
  Counts: 65 and 60
[1]; 2xEC50, 12 h, experiment 1
  AVG of cells/mL: 152500 cells/mL
  Cells/mL: 165000 Cells/mL and 140000 Cells/mL
  Counts: 66 and 56
[1]; 2xEC50, 12 h, experiment 2
  AVG of cells/mL: 145000 cells/mL
  Cells/mL: 145000 Cells/mL
  Counts: 58
[1]; 2xEC50, 24 h, experiment 1
  AVG of cells/mL: 86250 cells/mL
  Cells/mL: 77500 Cells/mL and 95000 Cells/mL
  Counts: 31 and 38
[1]; 2xEC50, 24 h, experiment 2
  AVG of cells/mL: 47500 cells/mL
  Cells/mL: 37500 Cells/mL and 57500 Cells/mL
  Counts: 15 and 23
[1]; 2xEC50, 36 h, experiment 1
  AVG of cells/mL: 76250 cells/mL
  Cells/mL: 87500 Cells/mL and 65000 Cells/mL
  Counts: 35 and 26
[1]; 2xEC50, 36 h, experiment 2
  AVG of cells/mL: 6250 cells/mL
  Cells/mL: 7500 Cells/mL and 5000 Cells/mL
  Counts: 3 and 2
[1]; 2xEC50, 48 h, experiment 1
  Cells/mL: 0 Cells/mL
  Counts: 0
[1]; 2xEC50, 48 h, experiment 2
  AVG of cells/mL: 2500 cells/mL
[1]; 2× and 5× EC50
  effect on T. brucei bloodstream forms in culture (cidal/static): trypanocidal
[1]; 5xEC50, 2 h, experiment 1
  AVG of cells/mL: 131250 cells/mL
  Cells/mL: 135000 Cells/mL and 127500 Cells/mL
  Counts: 54 and 51
[1]; 5xEC50, 2 h, experiment 2
  AVG of cells/mL: 135000 cells/mL
  Cells/mL: 127500 Cells/mL and 142500 Cells/mL
  Counts: 51 and 57
[1]; 5xEC50, 4 h, experiment 1
  AVG of cells/mL: 138750 cells/mL
  Cells/mL: 117500 Cells/mL and 160000 Cells/mL
  Counts: 64 and 47
[1]; 5xEC50, 4 h, experiment 2
  AVG of cells/mL: 181250 cells/mL
  Cells/mL: 177500 Cells/mL and 185000 Cells/mL
  Counts: 74 and 71
[1]; 5xEC50, 6 h, experiment 1
  AVG of cells/mL: 140000 cells/mL
  Cells/mL: 127500 Cells/mL and 152500 Cells/mL
  Counts: 51 and 61
[1]; 5xEC50, 6 h, experiment 2
  AVG of cells/mL: 145000 cells/mL
  Cells/mL: 135000 Cells/mL and 155000 Cells/mL
  Counts: 54 and 62
[1]; 5xEC50, 8 h, experiment 1
  AVG of cells/mL: 136250 cells/mL
  Cells/mL: 115000 Cells/mL and 157500 Cells/mL
  Counts: 46 and 63
[1]; 5xEC50, 8 h, experiment 2
  AVG of cells/mL: 137500 cells/mL
  Cells/mL: 135000 Cells/mL and 140000 Cells/mL
  Counts: 54 and 56
[1]; 5xEC50, 12 h, experiment 1
  AVG of cells/mL: 127500 cells/mL
  Cells/mL: 135000 Cells/mL and 120000 Cells/mL
  Counts: 54 and 48
[1]; 5xEC50, 12 h, experiment 2
  AVG of cells/mL: 125000 cells/mL
  Cells/mL: 125000 Cells/mL
  Counts: 50
[1]; 5xEC50, 24 h, experiment 1
  AVG of cells/mL: 47500 cells/mL
  Cells/mL: 45000 Cells/mL and 50000 Cells/mL
  Counts: 18 and 20
[1]; 5xEC50, 24 h, experiment 2
  AVG of cells/mL: 25000 cells/mL
  Cells/mL: 27500 Cells/mL and 22500 Cells/mL
  Counts: 11 and 9
[1]; 5xEC50, 36 h, experiment 1
  AVG of cells/mL: 22500 cells/mL
  Cells/mL: 25000 Cells/mL and 20000 Cells/mL
  Counts: 10 and 8
[1]; 5xEC50, 36 h, experiment 2
  AVG of cells/mL: 3750 cells/mL
  Cells/mL: 5000 Cells/mL and 2500 Cells/mL
  Counts: 2 and 1
[1]; 5xEC50, 48 h, experiment 1
  Cells/mL: 0 Cells/mL
  Counts: 0
[1]; 5xEC50, 48 h, experiment 2
  AVG of cells/mL: 0 cells/mL
  Cells/mL: 0 Cells/mL
  Counts: 0
T. brucei Squib 427; Trypanosoma brucei, Alamar blue cell viability assay, mean and SEM, read-out: T. b. brucei EC50
  EC50: 48 ± 9 nM
T. brucei Squib 427; Trypanosoma brucei, source data, read-out: T. brucei brucei EC50, Average
  EC50: 47.7 nM
T. brucei Squib 427; Trypanosoma brucei, source data, read-out: T. brucei brucei EC50, single measurements
  EC50: 39.9 nM
T. brucei Squib 427; selectivity index
  SI (MRC/T.b. brucei): >1333
T. brucei Squib 427; source data, read-out: T. brucei brucei EC50, single measurements
  EC50: 65.2 nM and 38 nM
P2 transporter (TbAT1)
  P2 Ki, fold lower than the Km value for adenosine: roughly 3 fold
  energy advantage at P2 versus adenosine: roughly 3 kJ mol^−1
P2 transporter (TbAT1); Gibbs free energy from −RT ln(Ki)
  P2 transporter ΔG^0: -9.3 kcal/mol
P2 transporter (TbAT1); P2 transporter IC50, single experiments, [L] 0.033 or 0.1 per experiment
  IC50: 133 nM and 281 nM and 171 nM and 85 nM
P2 transporter (TbAT1); AVG, source data
  Ki: 147 nM
P2 transporter (TbAT1); inhibition of [3H]adenosine uptake, mean ± SEM, n = 3
  Ki: 149 ± 30 nM
P2 transporter (TbAT1); single experiments, Cheng–Prusoff from IC50
  Ki: 111 nM and 236 nM and 160 nM and 80 nM
P2 transporter (TbAT1); in comparison to adenosine
  P2 transporter δ(ΔG^0): -0.741 kcal/mol
